Activity calls are given as the source filed them. How the calls were made is not given here.
Test system: rodent lifetime carcinogenesis bioassay, tumor incidence TD50
Assay: carcinogenic potency in animals, long-term in vivo studies, CPDB compilation (AID 1745844)

`Cc1ccc(S(=O)(=O)Oc2ccc(N=Nc3ccc(-c4ccc(N=Nc5c(O)ccc6cc(S(=O)(=O)O)cc(S(=O)(=O)O)c56)c(C)c4)cc3C)cc2)cc1` showed a TD50 (rat, strain Fischer 344, females, in drinking water, site: Zymbal's gland, lesion: adenoma + carcinoma, dosed 98 weeks, study length 104 weeks) of 15.6 mg/kg/day, a TD50 (rat, strain Fischer 344, females, in drinking water, site: Zymbal's gland, lesion: adenoma, dosed 98 weeks, study length 104 weeks) of 65.4 mg/kg/day and a TD50 (rat, strain Fischer 344, females, in drinking water, site: Zymbal's gland, lesion: carcinoma, dosed 98 weeks, study length 104 weeks) of 18 mg/kg/day. For the same compound, the TD50 (rat, strain Fischer 344, females, in drinking water, site: adrenal medulla, lesion: pheochromocytoma, benign, dosed 98 weeks, study length 104 weeks) was 38.3 mg/kg/day, the TD50 (rat, strain Fischer 344, females, in drinking water, site: adrenal medulla, lesion: pheochromocytoma, malignant + pheochromocytoma, benign, dosed 98 weeks, study length 104 weeks) was 31.6 mg/kg/day and the TD50 (rat, strain Fischer 344, females, in drinking water, site: any site (literature study), lesion: several types, types named in the paper, dosed 98 weeks, study length 104 weeks) was 2.31 mg/kg/day. The TD50 (rat, strain Fischer 344, females, in drinking water, site: clitoral gland + colon + duodenum + jejunum + liver + lung + pharynx + rectum + skin + tongue + Zymbal's gland, lesion: adenoma + adenoma, bilateral + carcinoma + carcinoma, bilateral + adenomatous polyp + mucinous cystadenocarcinoma + hepatocellular c, dosed 98 weeks, study length 104 weeks) was 3.11 mg/kg/day, the TD50 (rat, strain Fischer 344, females, in drinking water, site: clitoral gland, lesion: adenoma + adenoma, bilateral + carcinoma + carcinoma, bilateral, dosed 98 weeks, study length 104 weeks) was 4.75 mg/kg/day and the TD50 (rat, strain Fischer 344, females, in drinking water, site: clitoral gland, lesion: adenoma + adenoma, bilateral, dosed 98 weeks, study length 104 weeks) was 11.9 mg/kg/day. It also gave a TD50 (rat, strain Fischer 344, females, in drinking water, site: clitoral gland, lesion: carcinoma + carcinoma, bilateral, dosed 98 weeks, study length 104 weeks) of 8.97 mg/kg/day, a TD50 (rat, strain Fischer 344, females, in drinking water, site: colon + rectum, lesion: adenomatous polyp + mucinous cystadenocarcinoma, dosed 98 weeks, study length 104 weeks) of 136 mg/kg/day and a TD50 (rat, strain Fischer 344, females, in drinking water, site: duodenum + jejunum, lesion: adenomatous polyp + mucinous cystadenocarcinoma, dosed 98 weeks, study length 104 weeks) of 213 mg/kg/day. It also gave a TD50 (rat, strain Fischer 344, females, in drinking water, site: liver, lesion: hepatocellular adenoma + hepatocellular carcinoma + neoplastic nodule, dosed 98 weeks, study length 104 weeks) of 14.2 mg/kg/day, a TD50 (rat, strain Fischer 344, females, in drinking water, site: liver, lesion: hepatocellular carcinoma + neoplastic nodule, dosed 98 weeks, study length 104 weeks) of 14.2 mg/kg/day and a TD50 (rat, strain Fischer 344, females, in drinking water, site: liver, lesion: hepatocellular carcinoma, dosed 98 weeks, study length 104 weeks) of 42.5 mg/kg/day. For the same compound, the TD50 (rat, strain Fischer 344, females, in drinking water, site: liver, lesion: neoplastic nodule, dosed 98 weeks, study length 104 weeks) was 18 mg/kg/day, the TD50 (rat, strain Fischer 344, females, in drinking water, site: lung, lesion: alveolar/bronchiolar adenoma + alveolar/bronchiolar carcinoma, dosed 98 weeks, study length 104 weeks) was 23.6 mg/kg/day and the TD50 (rat, strain Fischer 344, females, in drinking water, site: lung, lesion: alveolar/bronchiolar adenoma, dosed 98 weeks, study length 104 weeks) was 26.3 mg/kg/day. The TD50 (rat, strain Fischer 344, females, in drinking water, site: mammary gland, lesion: adenocarcinoma, dosed 98 weeks, study length 104 weeks) was 40.6 mg/kg/day, the TD50 (rat, strain Fischer 344, females, in drinking water, site: mammary gland, lesion: adenoma, dosed 98 weeks, study length 104 weeks) was 67 mg/kg/day and the TD50 (rat, strain Fischer 344, females, in drinking water, site: mammary gland, lesion: fibroadenoma, dosed 98 weeks, study length 104 weeks) was 11.4 mg/kg/day. The TD50 (rat, strain Fischer 344, females, in drinking water, site: multiple organs, lesion: leukemia + mononuclear-cell leukemia, dosed 98 weeks, study length 104 weeks) was 9.44 mg/kg/day, the TD50 (rat, strain Fischer 344, females, in drinking water, site: pharynx + tongue, lesion: squamous-cell carcinoma + squamous-cell papilloma, dosed 98 weeks, study length 104 weeks) was 31.4 mg/kg/day and the TD50 (rat, strain Fischer 344, females, in drinking water, site: pharynx + tongue, lesion: squamous-cell carcinoma, dosed 98 weeks, study length 104 weeks) was 227 mg/kg/day. For the same compound, the TD50 (rat, strain Fischer 344, females, in drinking water, site: pharynx + tongue, lesion: squamous-cell papilloma, dosed 98 weeks, study length 104 weeks) was 36.5 mg/kg/day, the TD50 (rat, strain Fischer 344, females, in drinking water, site: pharynx, lesion: squamous-cell papilloma, dosed 98 weeks, study length 104 weeks) was 72.4 mg/kg/day and the TD50 (rat, strain Fischer 344, females, in drinking water, site: pituitary gland, lesion: pars distalis adenoma, dosed 98 weeks, study length 104 weeks) was 11.1 mg/kg/day. The TD50 (rat, strain Fischer 344, females, in drinking water, site: skin, lesion: basal-cell adenoma + basal-cell carcinoma, dosed 98 weeks, study length 104 weeks) was 21.9 mg/kg/day, the TD50 (rat, strain Fischer 344, females, in drinking water, site: skin, lesion: basal-cell adenoma, dosed 98 weeks, study length 104 weeks) was 28.2 mg/kg/day and the TD50 (rat, strain Fischer 344, females, in drinking water, site: skin, lesion: squamous-cell carcinoma + squamous-cell papilloma, dosed 98 weeks, study length 104 weeks) was 49.7 mg/kg/day. It also gave a TD50 (rat, strain Fischer 344, females, in drinking water, site: skin, lesion: squamous-cell carcinoma, dosed 98 weeks, study length 104 weeks) of 57.3 mg/kg/day, a TD50 (rat, strain Fischer 344, females, in drinking water, site: subcutaneous tissue, lesion: fibrosarcoma + fibroma, dosed 98 weeks, study length 104 weeks) of 78.2 mg/kg/day and a TD50 (rat, strain Fischer 344, females, in drinking water, site: thyroid gland, lesion: c-cell adenoma, dosed 98 weeks, study length 104 weeks) of 48.7 mg/kg/day. It also gave a TD50 (rat, strain Fischer 344, females, in drinking water, site: thyroid gland, lesion: follicular-cell adenoma + follicular-cell carcinoma, dosed 98 weeks, study length 104 weeks) of 28.8 mg/kg/day, a TD50 (rat, strain Fischer 344, females, in drinking water, site: thyroid gland, lesion: follicular-cell adenoma, dosed 98 weeks, study length 104 weeks) of 53.5 mg/kg/day and a TD50 (rat, strain Fischer 344, females, in drinking water, site: thyroid gland, lesion: follicular-cell carcinoma, dosed 98 weeks, study length 104 weeks) of 68.9 mg/kg/day. The TD50 (rat, strain Fischer 344, females, in drinking water, site: tongue, lesion: squamous-cell carcinoma + squamous-cell papilloma, dosed 98 weeks, study length 104 weeks) was 65.7 mg/kg/day, the TD50 (rat, strain Fischer 344, females, in drinking water, site: tongue, lesion: squamous-cell papilloma, dosed 98 weeks, study length 104 weeks) was 75 mg/kg/day and the TD50 (rat, strain Fischer 344, females, in drinking water, site: uterus, lesion: endometrial stromal polyp + endometrial stromal sarcoma, dosed 98 weeks, study length 104 weeks) was 16.4 mg/kg/day. The TD50 (rat, strain Fischer 344, females, in drinking water, site: uterus, lesion: endometrial stromal polyp, dosed 98 weeks, study length 104 weeks) was 20.1 mg/kg/day, the TD50 (rat, strain Fischer 344, males, in drinking water, site: Zymbal's gland, lesion: adenoma + carcinoma, dosed 104 weeks, study length 104 weeks) was 27 mg/kg/day and the TD50 (rat, strain Fischer 344, males, in drinking water, site: Zymbal's gland, lesion: carcinoma, dosed 104 weeks, study length 104 weeks) was 29.8 mg/kg/day. The TD50 (rat, strain Fischer 344, males, in drinking water, site: adrenal medulla, lesion: pheochromocytoma benign, bilateral + pheochromocytoma, malignant + pheochromocytoma, benign, dosed 104 weeks, study length 104 weeks) was 5.94 mg/kg/day, the TD50 (rat, strain Fischer 344, males, in drinking water, site: adrenal medulla, lesion: pheochromocytoma, benign, dosed 104 weeks, study length 104 weeks) was 6.69 mg/kg/day and the TD50 (rat, strain Fischer 344, males, in drinking water, site: any site (literature study), lesion: several types, types named in the paper, dosed 104 weeks, study length 104 weeks) was 3.23 mg/kg/day. It also gave a TD50 (rat, strain Fischer 344, males, in drinking water, site: liver + skin + Zymbal's gland, lesion: hepatocellular carcinoma + neoplastic nodule + basal-cell adenoma + basal-cell carcinoma + keratoacanthoma + sebaceous gland carci, dosed 104 weeks, study length 104 weeks) of 2.8 mg/kg/day, a TD50 (rat, strain Fischer 344, males, in drinking water, site: liver, lesion: hepatocellular adenoma + hepatocellular carcinoma + neoplastic nodule, dosed 104 weeks, study length 104 weeks) of 7.02 mg/kg/day and a TD50 (rat, strain Fischer 344, males, in drinking water, site: liver, lesion: hepatocellular carcinoma + neoplastic nodule, dosed 104 weeks, study length 104 weeks) of 7.02 mg/kg/day. The TD50 (rat, strain Fischer 344, males, in drinking water, site: liver, lesion: hepatocellular carcinoma, dosed 104 weeks, study length 104 weeks) was 20.2 mg/kg/day, the TD50 (rat, strain Fischer 344, males, in drinking water, site: liver, lesion: neoplastic nodule, dosed 104 weeks, study length 104 weeks) was 10.4 mg/kg/day and the TD50 (rat, strain Fischer 344, males, in drinking water, site: lung, lesion: alveolar/bronchiolar adenoma + alveolar/bronchiolar carcinoma, dosed 104 weeks, study length 104 weeks) was 47.2 mg/kg/day. It also gave a TD50 (rat, strain Fischer 344, males, in drinking water, site: lung, lesion: alveolar/bronchiolar adenoma, dosed 104 weeks, study length 104 weeks) of 39 mg/kg/day, a TD50 (rat, strain Fischer 344, males, in drinking water, site: multiple organs, lesion: mononuclear-cell leukemia, dosed 104 weeks, study length 104 weeks) of 12.3 mg/kg/day and a TD50 (rat, strain Fischer 344, males, in drinking water, site: pharynx + tongue, lesion: squamous-cell papilloma, dosed 104 weeks, study length 104 weeks) of 71 mg/kg/day. For the same compound, the TD50 (rat, strain Fischer 344, males, in drinking water, site: skin, lesion: basal-cell adenoma + basal-cell carcinoma, dosed 104 weeks, study length 104 weeks) was 3.3 mg/kg/day, the TD50 (rat, strain Fischer 344, males, in drinking water, site: skin, lesion: basal-cell adenoma, dosed 104 weeks, study length 104 weeks) was 3.58 mg/kg/day and the TD50 (rat, strain Fischer 344, males, in drinking water, site: skin, lesion: basal-cell carcinoma, dosed 104 weeks, study length 104 weeks) was 22.8 mg/kg/day. It also gave a TD50 (rat, strain Fischer 344, males, in drinking water, site: skin, lesion: keratoacanthoma, dosed 104 weeks, study length 104 weeks) of 20.4 mg/kg/day, a TD50 (rat, strain Fischer 344, males, in drinking water, site: skin, lesion: sebaceous gland carcinoma + sebaceous adenoma, dosed 104 weeks, study length 104 weeks) of 23.4 mg/kg/day and a TD50 (rat, strain Fischer 344, males, in drinking water, site: skin, lesion: squamous-cell carcinoma + squamous-cell papilloma, dosed 104 weeks, study length 104 weeks) of 12.7 mg/kg/day. The TD50 (rat, strain Fischer 344, males, in drinking water, site: skin, lesion: squamous-cell carcinoma, dosed 104 weeks, study length 104 weeks) was 16.2 mg/kg/day and the TD50 (rat, strain Fischer 344, males, in drinking water, site: testis, lesion: interstitial-cell adenoma, bilateral + interstitial-cell adenoma, dosed 104 weeks, study length 104 weeks) was 3.39 mg/kg/day.
For `CC(CN1c2ccccc2Sc2ccccc21)N(C)C` (stereo not given), the carcinogen call (mouse, strain B6C3F1, females, by gavage, site: any site (literature study), lesion: several types, types named in the paper, dosed 104 weeks, study length 105 weeks) was “negative (inactive)”, the TD50 (mouse, strain B6C3F1, females, by gavage, site: liver, lesion: hepatocellular adenoma + hepatoblastoma + hepatocellular carcinoma, dosed 104 weeks, study length 105 weeks) was 47.8 mg/kg/day and the TD50 (mouse, strain B6C3F1, males, by gavage, site: any site (literature study), lesion: several types, types named in the paper, dosed 103 weeks, study length 104 weeks) was 393 mg/kg/day (inactive). The TD50 (mouse, strain B6C3F1, males, by gavage, site: liver, lesion: hepatocellular adenoma + hepatoblastoma + hepatocellular carcinoma, dosed 103 weeks, study length 104 weeks) was 157 mg/kg/day, the carcinogen call (rat, strain Fischer 344, females, by gavage, site: any site (literature study), lesion: several types, types named in the paper, dosed 103 weeks, study length 104 weeks) was “negative (inactive)” and the TD50 (rat, strain Fischer 344, females, by gavage, site: liver, lesion: hepatocellular adenoma + hepatoblastoma + hepatocellular carcinoma, dosed 103 weeks, study length 104 weeks) was 418 mg/kg/day. The TD50 (rat, strain Fischer 344, males, by gavage, site: any site (literature study), lesion: several types, types named in the paper, dosed 102 weeks, study length 102 weeks) was 24.6 mg/kg/day and the TD50 (rat, strain Fischer 344, males, by gavage, site: testis, lesion: interstitial-cell adenoma, bilateral + interstitial-cell adenoma, dosed 102 weeks, study length 102 weeks) was 10.3 mg/kg/day (inactive).

— PubChem BioAssay AID1745844 (Carcinogenic Potency Database (CPDB), 2022)
